{"source": "patent US9173951B2", "about": "“Carbohydrate-based drug delivery polymers and conjugates thereof” (NEKTAR THERAPEUTICS, priority 2008, dated 2015)", "system": "db/db diabetic mice", "assay": "Blood glucose levels in db/db diabetic mice after i.p. injection", "assay_type": "in vivo", "protocol": "Blood glucose levels were measured At different time points after dosing.\nStudy Procedure: Animals were acclimated to researcher's handling procedures. Baseline glucose levels were measured prior to drug administration. Outlier animals with glucose level <300 or >600 mg/dL were excluded from the study. Animals were assigned randomly to different groups, as follows:\nAt different time points (1, 2, 4, 8, and 24 hrs), blood was collected by tail clipping, and glucose level was measured using a One Touch® Ultra glucometer (Johnson & Johnson; Life Scan Ltd.)"}
{"substance": "dextran-butyrALD-40K-insulin [20b]", "values": [{"measurement": "Glucose level, mean", "setting": "250 ug/mouse ip, 1 hr", "result": "263+39 mg/dL"}, {"measurement": "reduction of glucose level vs time 0", "setting": "250 ug/mouse ip, 1 hr", "result": 47, "unit": "%"}, {"measurement": "Glucose level, mean", "setting": "250 ug/mouse ip, 1 hr, listed as Dex-Ins", "result": 263, "unit": "mg/dL"}, {"measurement": "Glucose level, mean", "setting": "250 ug/mouse ip, 2 hr", "result": "192+36 mg/dL"}, {"measurement": "reduction of glucose level vs time 0", "setting": "250 ug/mouse ip, 2 hr", "result": 61, "unit": "%"}, {"measurement": "Glucose level, mean", "setting": "250 ug/mouse ip, 2 hr, listed as Dex-Ins", "result": 192, "unit": "mg/dL"}, {"measurement": "Glucose level, mean", "setting": "250 ug/mouse ip, 4 hr", "result": 462, "unit": "mg/dL"}, {"measurement": "Glucose level, mean", "setting": "250 ug/mouse ip, 8 hr", "result": 494, "unit": "mg/dL"}, {"measurement": "Glucose level, mean", "setting": "250 ug/mouse ip, 24 hr", "result": 517, "unit": "mg/dL"}, {"measurement": "Glucose level, mean", "setting": "250 ug/mouse ip, time 0 (baseline)", "result": "495+32 mg/dL"}, {"measurement": "Glucose level, mean", "setting": "250 ug/mouse ip, time 0 (baseline), listed as Dex-Ins", "result": 495, "unit": "mg/dL"}]}
{"substance": "insulin", "values": [{"measurement": "Glucose level, mean", "setting": "5 ug/mouse ip, 1 hr", "result": 265, "unit": "mg/dL"}, {"measurement": "reduction of glucose level vs time 0", "setting": "5 ug/mouse ip, 1 hr", "result": 48, "unit": "%"}, {"measurement": "Glucose level, mean", "setting": "5 ug/mouse ip, 2 hr", "result": 352, "unit": "mg/dL"}, {"measurement": "reduction of glucose level vs time 0", "setting": "5 ug/mouse ip, 2 hr", "result": 31, "unit": "%"}, {"measurement": "Glucose level, mean", "setting": "5 ug/mouse ip, 4 hr", "result": 587, "unit": "mg/dL"}, {"measurement": "Glucose level, mean", "setting": "5 ug/mouse ip, 8 hr", "result": 538, "unit": "mg/dL"}, {"measurement": "Glucose level, mean", "setting": "5 ug/mouse ip, 24 hr", "result": 538, "unit": "mg/dL"}, {"measurement": "Glucose level, mean", "setting": "5 ug/mouse ip, time 0 (baseline)", "result": 510, "unit": "mg/dL"}, {"measurement": "Glucose level, mean", "setting": "50 ug/mouse ip, 1 hr", "result": 210, "unit": "mg/dL"}, {"measurement": "reduction of glucose level vs time 0", "setting": "50 ug/mouse ip, 1 hr", "result": 53, "unit": "%"}, {"measurement": "Glucose level, mean", "setting": "50 ug/mouse ip, 2 hr", "result": 150, "unit": "mg/dL"}, {"measurement": "reduction of glucose level vs time 0", "setting": "50 ug/mouse ip, 2 hr", "result": 67, "unit": "%"}, {"measurement": "Glucose level, mean", "setting": "50 ug/mouse ip, 4 hr", "result": 550, "unit": "mg/dL"}, {"measurement": "Glucose level, mean", "setting": "50 ug/mouse ip, 8 hr", "result": 558, "unit": "mg/dL"}, {"measurement": "Glucose level, mean", "setting": "50 ug/mouse ip, 24 hr", "result": 541, "unit": "mg/dL"}, {"measurement": "Glucose level, mean", "setting": "50 ug/mouse ip, time 0 (baseline)", "result": 445, "unit": "mg/dL"}]}
